Laboratory results: patent publication EP3821889A1, “METHODS FOR USING LOW-DOSE […] MYOCARIAL INFARCTION” (Institut de Cardiologie de Montréal, priority 2019, dated 2021)
Values joined by “and” are separate entries in the source; they are usually repeats but may differ in a detail not shown here. Equal values may be shown once. “Also recorded” adds a separate entry of the source.

Key:
[1] = test system: patients with stable coronary disease; conditions: in vivo; cited from earlier work
[2] = test system: patients recruited within 30 days after a myocardial infarction; conditions: in vivo
[3] = test system: High-sensitivity C-reactive protein; conditions: in vivo
[4] = test system: patients recruited within 30 days after a myocardial infarction; conditions: human, in vivo
[5] = test system: white-cell count; conditions: in vivo
[6] = CIRT; cited from earlier work

Structure (SMILES): COc1cc2c(c(OC)c1OC)-c1ccc(OC)c(=O)cc1[C@@H](NC(C)=O)CC2 [Colchicine]
- cardiovascular events (in words) [1]: fewer cardiovascular events
- Anemia [2]: 14 (0.6) number of patients (percent)
- Any serious adverse event [2]: 383 (16.4) number of patients (percent)
- At least one gastrointestinal adverse event [2]: 17.5%
- Diarrhea reported, % of the patients [2]: 9.7%
- Gastrointestinal hemorrhage [2]: 7 (0.3) number of patients (percent)
- Gastrointestinal serious adverse event [2]: 46 (2.0) number of patients (percent)
- Hospitalization for heart failure [2]: 25 (1.1) number of patients (percent)
- Infection as a serious adverse event, % of the patients [2]: 2.2%
- Infection serious adverse event [2]: 51 (2.2) number of patients (percent)
- Leukopenia [2]: 2 (0.1) number of patients (percent)
- Nausea adverse event [2]: 43 (1.8) number of patients (percent)
- Pneumonia reported as a serious adverse event, % of the patients [2]: 0.9%
- Pneumonia serious adverse event [2]: 21 (0.9) number of patients (percent)
- Septic shock serious adverse event [2]: 2 (0.1) number of patients (percent)
- Thrombocytopenia [2]: 3 (0.1) number of patients (percent)
- incidence of adverse events considered to be related to trial drug [2]: 16.0%
- incidence of septic shock (in words) [2]: did not increase the incidence of septic shock
- nausea, % of the patients [2]: 1.8%
- overall incidence of serious adverse events [2]: 16.4%
- serious adverse event of myopathy (in words) [2]: no serious adverse event of myopathy linked to colchicine
- trial regimen discontinued, % of the patients [2]: 18.4%
- Hs-C reactive protein, 6 months, geometric mean (IQR) [3]: 1.37 (0.75, 2.13) mg/L
- Hs-C reactive protein, Adjusted GM percent change (95% CI) [3]: -70.0% and -70.0 (-74.6, -64.5) %
- Hs-C reactive protein, Placebo-adjusted GM percent change (95% CI) [3]: -10.1% and -10.1 (-28.6, 13.4) %
- Hs-C reactive protein, Randomization, geometric mean (IQR) [3]: 4.27 (2.12, 7.22) mg/L
- reduction in the C-reactive protein level [3]: > 65%
- Adjusted Hazard Ratio (95% CI), time to first primary endpoint [4]: 0.78 (0.62-0.98)
- Death [4]: 43 (1.8) number (percent)
- Death from cardiovascular causes [4]: 20 (0.8) number (percent)
- Deep venous thrombosis or pulmonary embolus [4]: 10 (0.4) number (percent)
- Hazard Ratio (95% CI), CV death [4]: 0.83 (0.45-1.53)
- Hazard Ratio (95% CI), Death [4]: 0.98 (0.64–1.49)
- Hazard Ratio (95% CI), Deep venous thrombosis or pulmonary embolus [4]: 1.43 (0.54–3.75)
- Hazard Ratio (95% CI), MI [4]: 0.84 (0.62-1.14)
- Hazard Ratio (95% CI), Resuscitated cardiac arrest [4]: 1.00 (0.29-3.46)
- Hazard Ratio (95% CI), Stroke [4]: 0.26 (0.10-0.71)
- Hazard Ratio (95% CI), Urgent hospitalization for angina requiring revascularization [4]: 0.47 (0.28-0.78)
- Hazard Ratio (95% CI), WLW model, 1st Event [4]: 0.77 (0.61; 0.96)
- Hazard Ratio (95% CI), WLW model, 2nd Event [4]: 0.73 (0.48; 1.11)
- Hazard Ratio (95% CI), WLW model, 3rd Event [4]: 0.64 (0.37; 1.10)
- Hazard Ratio (95% CI), WLW model, Average [4]: 0.77 (0.61; 0.96)
- Hazard Ratio (95% CI), total primary endpoint events, Andersen-Gill model [4]: 0.69 (0.54; 0.88)
- MI [4]: 77 (3.4%) no. (%)
- Myocardial infarction [4]: 89 (3.8) number (percent)
- Number of primary endpoint events per patient: 0 (number of patients) [4]: 2235
- Number of primary endpoint events per patient: 1 (number of patients) [4]: 111
- Number of primary endpoint events per patient: 2 (number of patients) [4]: 18
- Number of primary endpoint events per patient: 3 (number of patients) [4]: 1
- Number of primary endpoint events per patient: 4 (number of patients) [4]: 1
- Primary endpoint [4]: 115(5.1%) no. (%)
- Rate of primary endpoint events per 100 patient-months [4]: 0.29 per 100 patient-months
- Secondary composite end point [4]: 111 (4.7) number (percent)
- Total number of primary endpoint events [4]: 154
- Urgent hospitalization for angina leading to revascularization [4]: 25 (1.1) number (percent)
- Urgent hospitalization for angina requiring revascularization [4]: 22 (1.0%) no. (%)
- ischemic cardiovascular events / primary composite efficacy end point compared with placebo (in words) [4]: significantly lower percentage of patients with ischemic cardiovascular events than placebo; also recorded: statistically significant lower risk of ischemic cardiovascular events than placebo
- primary end point occurred in % of the patients [4]: 5.5% and 5.1%
- secondary efficacy end point occurred in % of the patients [4]: 4.7%
- Circulating lymphocytes, 12 months, geometric mean (IQR) [5]: 1.83 (1.50, 2.44) 10^3/µL
- Circulating lymphocytes, Adjusted GM percent change (95% CI) [5]: 1.80 (-0.46, 4.11) %
- Circulating lymphocytes, Placebo-adjusted GM percent change (95% CI) [5]: 1.10 (-2.06, 4.36) %
- Circulating lymphocytes, Randomization, geometric mean (IQR) [5]: 1.79 (1.40, 2.40) 10^3/µL
- Circulating neutrophils, 12 months, geometric mean (IQR) [5]: 3.95 (3.27, 5.08) 10^3/µL
- Circulating neutrophils, Adjusted GM percent change (95% CI) [5]: -27.63 (-29.48, -25.73) %
- Circulating neutrophils, Placebo-adjusted GM percent change (95% CI) [5]: 0.45 (-3.28, 4.32) %
- Circulating neutrophils, Randomization, geometric mean (IQR) [5]: 5.45 (4.36, 7.15) 10^3/µL
- Total white blood cell count, 12 months, geometric mean (IQR) [5]: 6.95 (5.99, 8.30) 10^3/µL
- Total white blood cell count, Adjusted GM percent change (95% CI) [5]: -18.8% and -18.81 (-20.12, -17.47) %
- Total white blood cell count, Placebo-adjusted GM percent change (95% CI) [5]: 0.3% and 0.26 (-2.15, 2.72) %
- Total white blood cell count, Randomization, geometric mean (IQR) [5]: 8.54 (7.10, 10.40) 10^3/µL

Structure (SMILES): CN(Cc1cnc2nc(N)nc(N)c2n1)c1ccc(C(=O)N[C@@H](CCC(=O)O)C(=O)O)cc1 [methotrexate]
- cardiovascular outcomes and plasma markers of inflammation (in words) [6]: did not affect cardiovascular outcomes or plasma markers of inflammation
